Publication PMC6272185 (Molecules, 2015)
Converted amounts (≈) assume the structure as drawn. Read-outs that look alike come from different tables or passages of the source.

Legend:
[1] = system: iNOS expression in RAW 264.7 macrophages; assay: iNOS expression by western blot in LPS-stimulated macrophages; assay type: cell-based, murine; conditions: 20 µg/mL, LPS 1 µg/mL, 24 h
Method: (§1) RAW 264.7 macrophages were plated in Petri dishes (2 × 10^7 cells·mL^−1) and incubated for 24 h at 37 °C in 5% CO2 atmosphere. […] The resulted cellular monolayers were washed with PBS 1×, scraped and resuspended in PBS 1×, transferred and centrifuged to obtain cell pellets. The cells were lysed in buffer (10% SDS, 20% glycerol, 5% 2-mercaptoethanol, 2% bromophenol blue and 1 M Tris HCl, pH 6.8, containing protease inhibitors). Protein concentrations were estimated by Bradford method. For western blot analysis, cellular extract samples (60 µg) were submitted to 10% SDS–polyacrylamide gel electrophoresis under […] conditions and transferred to nitrocellulose membranes (Amersham Pharmacia Biotech, Uppsala, Sweden). After blocking with PBS-T (0.5% Tween-20) containing 2.5% (w/v) bovine serum albumin, the membranes were incubated with antibodies against iNOS (1:1000) and COX-2 (1:500) for 1 h at room temperature. After incubation period, the membranes were washed followed by treatment with horseradish peroxidase-conjugated secondary antibody. The resulting membranes were developed using diaminobenzidine/H2O2 as a substrate for peroxidase. In all electrophoresis experiments, a protein standard ladder (Full Range Rainbow-GE Healthcare, Piscataway, NJ, USA) was used to estimate proteins molecular size. Protein bands densitometric analysis was performed using ImageJ software for Windows (NIH, Bethesda, MD, USA). The value for stimulated condition (LPS- treated cells) was set as 1 and other conditions were recalculated correspondingly to allow ratio comparisons.

[2] = system: COX-2 expression in RAW 264.7 macrophages; assay: COX-2 expression by western blot in LPS-stimulated macrophages; assay type: cell-based, murine; conditions: 20 µg/mL, LPS 1 µg/mL, 24 h
Method: as §1

[3] = system: TNF-α production by LPS-stimulated RAW 264.7 macrophages; assay: Inhibition of TNF-α production by LPS-stimulated macrophages (ELISA); assay type: cell-based, murine; conditions: for IC50: Mus musculus, RAW264.7, LPS (1 µg/mL)-stimulated RAW 264.7, 24 h, mean ± SD, n = 3, read-out: IC50 TNF-α
[4] = system: M. tuberculosis strain H37Rv in RAW 264.7 macrophages; assay: Intracellular growth of M. tuberculosis H37Rv in infected macrophages (CFU); assay type: cell-based, Mycobacterium tuberculosis; conditions: infected RAW 264.7, MOI 1:1, 4 days, Figure 3C; for MIC50: Mycobacterium tuberculosis, H37RV, 96 h
Method: (§2) RAW 264.7 macrophages were plated (1 × 10^5 cells/well) in antibiotic-free DMEM-F12 medium supplemented with 10% fetal bovine serum and incubated for 24 h. Prior to infection, mycobacterial suspensions were sonicated for 1 minute to disperse clumps and optical densities were adjusted to 0.1. The macrophage cultures were infected at a MOI of 1:1 (macrophage: bacterium). Phagocytosis was allowed to progress for 3 h. After 3 h, extracellular mycobacteria were removed by washing with PBS 1X and the infected cell monolayers were treated for 4 days with chalcone samples or rifampicin. Macrophage viability was monitored by LDH assay and was over 80% in all experiments. On day 4 after infection, cells were lysed cells with 1% saponin to release intracellular bacteria. Lysate aliquots were diluted 10-fold in PBS, plated in triplicates on 7H10 agar plates and incubated at 37 °C. After 21 days, total CFU were determined.

M. bovis BCG = assay: microbe, parasite or virus in culture; assay type: cell-based, Mycobacterium bovis BCG; conditions: for MIC50 / MIC90: Mycobacterium tuberculosis variant bovis BCG, BCG, 168 h; for MIC50: read-out: MIC50 M. bovis BCG; for MIC90: read-out: MIC90 M. bovis BCG
[5] = system: IL-1β production by LPS-stimulated RAW 264.7 macrophages; assay: Inhibition of IL-1β production by LPS-stimulated macrophages (ELISA); assay type: cell-based, murine; conditions: for inhibition of IL-1β: LPS-stimulated RAW 264.7; for IC50: Mus musculus, RAW264.7, 24 h, read-out: IC50 IL-1β
Method: (§3) Murine RAW 264.7 macrophage cell line (American Type Culture Collection, Manassas, VA, USA), was cultured in Dulbecco’s modified Eagle’s medium (DMEM-F12) supplemented with 10% Fetal Bovine Serum (FBS) and gentamicin (50 µg/mL) in 5% CO2 atmosphere at 37 °C. For experiments, the cells were seeded in 96-well plates (1 × 10^5 cells/well) and incubated for 24 h at 37 °C. For macrophage stimulation, the cell cultures were treated with LPS (1 µg/mL) and incubated for additional 24 h in the presence or absence of the chalcone samples (samples 1–41) that were used at concentrations of 100, 20, 4 and 0.8 µg/mL. In some experiments, a nitric oxide (NO) inhibitor, L-NMMA (20 μg/mL), was used as a positive control of NO inhibition, and a non-steroidal anti-inflammatory drug indomethacin, known to inhibit production of prostaglandins, was used as a positive control of PGE2 inhibition.
(§4) The frozen culture supernatants samples were thawed and immediately analyzed using commercially available enzyme-linked immunosorbent assay (ELISA) kits to measure TNF-α, IL-1β (BD Biosciences) and PGE2 (R&D Systems, Minneapolis, MN, USA), according to the manufacturer’s instructions. Standard curves for each mediator were generated using reference cytokine concentrations supplied by the manufacturer. Nitric oxide (NO) generation was assessed by the Griess method to measure nitrites, which are stable breakdown NO products.

M. tuberculosis H37Rv = assay: microbe, parasite or virus in culture; assay type: cell-based, Mycobacterium tuberculosis; conditions: for MIC90 / MIC50: Mycobacterium tuberculosis
[6] = Macrophage cytotoxicity, LDH release assay; assay type: cell-based, murine; conditions: mouse, RAW 264.7 macrophages stimulated with LPS; LPS-stimulated RAW 264.7, LDH release; mean ± SD, n = 3
Method: Cytotoxic effects of chalcone samples on RAW 264.7 cell viability in cultures stimulated with LPS were determined using the LDH (lactate dehydrogenase) release assay as previously described [58]. Cytoplasmic enzyme LDH release into cell culture supernatants was detected using a commercial LDH kit (Doles, GO, Brazil). Cell death was expressed as percentage of LDH release, which was calculated using the following formula: percentage of LDH release = 100 × (test LDH release − spontaneous release)/(maximum release − spontaneous release). The maximum release was determined following dissolution of cell monolayers using 1% (vol/vol) Triton X-100. The spontaneous release was determined in supernatants from cultures incubated in the presence of LPS and DMSO, used as a solvent for chalcone samples.

M. tuberculosis M299 = assay: microbe, parasite or virus in culture; assay type: cell-based, Mycobacterium tuberculosis; conditions: Mycobacterium tuberculosis, M299, 120 h
[7] = system: RAW 264.7 macrophages infected with M. tuberculosis H37Rv; assay: Toxicity for infected macrophages, LDH assay; assay type: cell-based, murine; conditions: Mus musculus, RAW264.7, 96 h; infected RAW 264.7, 4 days treatment; Figure 3D
Method: Cytotoxic effects of chalcone samples on RAW 264.7 cell viability in cultures stimulated with LPS were determined using the LDH (lactate dehydrogenase) release assay as previously described. Cytoplasmic enzyme LDH release into cell culture supernatants was detected using a commercial LDH kit (Doles, GO, Brazil). Cell death was expressed as percentage of LDH release, which was calculated using the following formula: percentage of LDH release = 100 × (test LDH release − spontaneous release)/(maximum release − spontaneous release). The maximum release was determined following dissolution of cell monolayers using 1% (vol/vol) Triton X-100. The spontaneous release was determined in supernatants from cultures incubated in the presence of LPS and DMSO, used as a solvent for chalcone samples.
as §2

[8] = system: PGE2 production by LPS-stimulated RAW 264.7 macrophages; assay: Inhibition of PGE2 production by LPS-stimulated macrophages (ELISA); assay type: cell-based, murine; conditions: Mus musculus, RAW264.7, 24 h, read-out: IC50 PGE2
Method: as §3, §4

[9] = system: NO production by LPS-stimulated RAW 264.7 macrophages; assay: Inhibition of NO production by LPS-stimulated macrophages (Griess); assay type: cell-based, murine; conditions: Mus musculus, RAW264.7, 24 h, LPS (1 µg/mL)-stimulated RAW 264.7, 24 h; mean ± SD, n = 3; read-out: IC50 NO
[10] = H37RV, 120 h, read-out: MIC50 M. tuberculosis H37Rv
[11] = Table 5, same values as M. tuberculosis H37Rv in Table 3, read-out: MIC50

| Compound | inhibition of iNOS expression [1] | abrogation of COX-2 expression [2] | IC50 [3] [µM] | MIC50 [4] [µM] | MIC50 (M. bovis BCG) [µM] | MIC90 (M. bovis BCG) [µM] | inhibition of IL-1β [5] | IC50 [5] [µM] | MIC90 (M. tuberculosis H37Rv; H37RV, 120 h) [µM] | MIC50 (M. tuberculosis H37Rv; [10]) [µM] | MIC50 (M. tuberculosis H37Rv; [11]) [µM] | IC50 [6] [µM] | MIC50 (M. tuberculosis M299) [µM] | MIC90 (M. tuberculosis M299) [µM] | IC50 [7] [µM] | IC50 [8] [µM] | other results |
| --- | --- | --- | --- | --- | --- | --- | --- | --- | --- | --- | --- | --- | --- | --- | --- | --- | --- |
| O=C(/C=C/c1ccc2c(c1)OCO2)c1ccccc1 [Chalcone 5] | almost completely inhibit | most potent in abrogation | 48.1 ± 7.6 | 3.8 ± 0.1 (≈ 0.959 µg/mL) | 14.5 ± 6.1 (≈ 3.66 µg/mL) | 75.3 ± 8.4 (≈ 19 µg/mL) | potent inhibitors | 57.9 ± 4.9 | 303 ± 5.4 (≈ 76.5 µg/mL) | 12.7 ± 1.9 (≈ 3.2 µg/mL) | 12.7 ± 1.9 (≈ 3.2 µg/mL) | > 396 | 11.7 ± 3.4 (≈ 2.95 µg/mL) | 289.6 ± 0.7 (≈ 73.1 µg/mL) | > 396 | 23.1 ± 2.4 | inhibition of TNF-α ([3]; LPS-stimulated RAW 264.7): strongly inhibit; MIC50 intracellular M. tuberculosis H37Rv [4]: 3.8 ± 0.1 µM (≈ 0.959 µg/mL); MIC90 M. bovis BCG (M. bovis BCG; culture, 7 days, MTT): 75.3 ± 8.4 µM (≈ 19 µg/mL); MIC90 M. tuberculosis H37Rv (M. tuberculosis H37Rv): 303.2 ± 5.4 µM (≈ 76.5 µg/mL) |
| O=C(/C=C/c1ccc(Cl)cc1)c1ccccc1 [Chalcone 3] | almost completely inhibit | most potent in abrogation | 60.5 ± 4.7 | 12.3 ± 1 (≈ 2.99 µg/mL) | 20.7 ± 6.4 (≈ 5.02 µg/mL) | 170 ± 5.4 (≈ 41.2 µg/mL) | potent inhibitors | 46.6 ± 4.6 | 372.7 ± 3.6 (≈ 90.5 µg/mL) | 13 ± 3.3 (≈ 3.16 µg/mL) | 13 ± 3.3 (≈ 3.16 µg/mL) | 400 ± 4.9 | 18.4 ± 3.9 (≈ 4.46 µg/mL) | 373.9 ± 1.4 (≈ 90.7 µg/mL) | 307 ± 5.1 | 19.9 ± 2.6 | IC50 [9]: 31.9 ± 4.6 µM |
